Experimental data published in article PMC10489644, “In Vitro Evaluation of the Potential for Drug Interactions by Salidroside” (Nutrients, 2023).
Like-named read-outs stand apart in the source and are kept apart here.

How the values were obtained:
MAO-B = test system: MAO-B; parameters: method as in PMID 19168123; conditions: isolated compound at 10 µM; cited from earlier work
CYP1A2 [1] = molecular target: T1, CYP1A2 (Homo sapiens, UniProt P05177); test: Time-dependent inhibition (IC50 shift) in human liver microsomes; assay type: in vitro ADME
T1 construct: Mixed human liver microsomes were purchased from BioreclamationIVT; tissue BioreclamationIVT; host or cells: mixed-donor pool of human liver microsomes (Lot ZZQ)
T1 sequence (P05177 1-516): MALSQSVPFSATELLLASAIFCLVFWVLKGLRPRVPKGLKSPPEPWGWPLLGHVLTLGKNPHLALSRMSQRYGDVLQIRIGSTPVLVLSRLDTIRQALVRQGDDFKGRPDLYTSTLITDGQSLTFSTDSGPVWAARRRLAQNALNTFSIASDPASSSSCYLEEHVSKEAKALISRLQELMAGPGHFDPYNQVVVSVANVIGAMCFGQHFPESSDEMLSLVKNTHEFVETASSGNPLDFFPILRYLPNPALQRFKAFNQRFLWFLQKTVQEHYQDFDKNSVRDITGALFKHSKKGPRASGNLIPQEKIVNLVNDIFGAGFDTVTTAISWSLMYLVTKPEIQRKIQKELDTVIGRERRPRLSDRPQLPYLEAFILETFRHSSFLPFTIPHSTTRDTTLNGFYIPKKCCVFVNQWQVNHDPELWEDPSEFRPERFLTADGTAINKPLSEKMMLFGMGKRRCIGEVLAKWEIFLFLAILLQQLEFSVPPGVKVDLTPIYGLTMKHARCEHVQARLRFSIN

CYP2C9 = CYP2C9 (Homo sapiens, UniProt P11712); test: as above
Sequence of CYP2C9 (P11712 whole entry): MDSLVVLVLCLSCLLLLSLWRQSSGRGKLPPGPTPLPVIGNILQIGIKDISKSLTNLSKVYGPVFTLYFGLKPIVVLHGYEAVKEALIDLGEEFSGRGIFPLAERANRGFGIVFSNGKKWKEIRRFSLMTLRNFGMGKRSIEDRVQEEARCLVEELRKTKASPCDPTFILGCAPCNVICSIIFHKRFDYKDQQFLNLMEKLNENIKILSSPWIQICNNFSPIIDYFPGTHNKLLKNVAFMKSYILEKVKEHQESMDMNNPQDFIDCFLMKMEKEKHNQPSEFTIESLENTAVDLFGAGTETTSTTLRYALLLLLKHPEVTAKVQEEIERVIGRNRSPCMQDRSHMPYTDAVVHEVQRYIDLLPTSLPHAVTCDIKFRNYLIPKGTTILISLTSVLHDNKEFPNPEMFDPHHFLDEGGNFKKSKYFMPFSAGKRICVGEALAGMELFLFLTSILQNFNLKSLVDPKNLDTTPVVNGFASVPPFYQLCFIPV

CYP1A2 [2] = molecular target: T1, CYP1A2; test: CYP direct inhibition in human liver microsomes; assay type: in vitro ADME; conditions: probe phenacetin, mean of N = 2
CYP2B6 [3] = molecular target: T2, CYP2B6 (Homo sapiens, UniProt P20813); test: biochemical
T2 sequence (P20813 1-491): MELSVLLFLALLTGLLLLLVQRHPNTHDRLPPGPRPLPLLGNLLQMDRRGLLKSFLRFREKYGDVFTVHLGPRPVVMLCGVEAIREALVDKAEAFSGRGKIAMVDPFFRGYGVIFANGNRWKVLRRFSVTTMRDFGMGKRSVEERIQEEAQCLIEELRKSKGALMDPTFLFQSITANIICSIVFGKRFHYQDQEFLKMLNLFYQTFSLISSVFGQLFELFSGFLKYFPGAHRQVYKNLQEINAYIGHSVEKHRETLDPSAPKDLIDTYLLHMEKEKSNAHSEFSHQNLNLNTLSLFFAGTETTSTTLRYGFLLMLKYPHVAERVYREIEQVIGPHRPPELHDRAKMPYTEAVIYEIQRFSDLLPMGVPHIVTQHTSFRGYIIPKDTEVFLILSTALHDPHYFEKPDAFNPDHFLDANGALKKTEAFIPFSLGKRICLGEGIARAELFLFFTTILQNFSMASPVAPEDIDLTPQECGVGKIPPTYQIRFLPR

CYP1A2 [4] = test: in vitro; conditions: human; for % of Positive Control / Mean Enzyme Activity: 48 h
Experimental: (§1) The sandwich medium was removed, and the hepatocytes were treated with incubation solutions containing salidroside (1, 5, 10, and 30 µM), vehicle (0.1% DMSO), or positive inducers in triplicate for 24 h after the cultures were established. The incubation solution was aspirated and replaced with incubation solution containing the same concentrations of salidroside, vehicle, or positive inducers for an additional 24 h. The total treatment period was 48 h. After the treatment period of 48 h, the incubation solution was aspirated. Hepatocytes were washed twice with pre-warmed HBSS containing 10 mM HEPES (HBSS I) and then the remaining solution was aspirated. Hepatocytes were washed once with pre-warmed HBSS I and incubated with 140 μL of RLT (lysis buffer from RNeasy 96 Kit) supplemented with 1% β-mercaptoethanol. Plates were then stored at −70 °C in a freezer until RNA analysis. Before RNA extraction, the frozen plate was thawed, and cell lysates were transferred to 96-well plates. RNA isolation was performed using a QIAcube RNA extraction system. Reverse transcription was performed to obtain cDNA. Quantification of the selective genes by real-time quantitative polymerase chain reaction (qPCR) was performed with TaqMan universal PCR Master Mix on the Bio-rad CFX384 TouchTM Real-Time PCR System. The relative change in the mRNA level of the selected target genes induced by each test compound was expressed in relation to the vehicle control sample, and fold changes in gene expression were determined by the ΔΔCt method.
(§2) Enzyme activity (%) = PAR with compound/PAR vehicle × 100.

CYP2B6 [5] = test: in vitro; conditions: human; for % of Positive Control / Mean Enzyme Activity: 48 h
Experimental: as §1, §2

CYP2B6 [6] = molecular target: T2, CYP2B6; test: biochemical; remark: listed apart in the source

OC[C@H]1O[C@@H](OCCc2ccc(O)cc2)[C@H](O)[C@@H](O)[C@@H]1O [Salidroside]
inhibition of MAO-B (MAO-B): 35.8% | IC50 Shift (CYP1A2 [1]; IC50 without/with preincubation, >[…] positive for TDI): no shift | IC50 (CYP1A2 [1]; probe phenacetin, positive control not given, likely furafylline): > 50 µM | IC50 (CYP1A2 [1]; read-out: IC50 after 30 min Preincubation with NADPH, probe phenacetin, positive control not given, likely furafylline): > 50 µM | IC50 (CYP2C9): > 50 µM | IC50 (CYP1A2 [2]): > 50 µM | IC50 (CYP2B6 [3]): > 50 µM | fold induction at 48 h, 0.1 µM (CYP1A2 [4]): 0.8 | fold induction at 48 h, 1 µM (CYP1A2 [4]): 0.66 | fold induction at 48 h, 10 µM (CYP1A2 [4]): 0.76 | % of Positive Control (CYP1A2 [4]; 0.1 µM): −8% | Mean Enzyme Activity (CYP1A2 [4]; 0.1 µM): 2.18 pmol/10^6 cells/min | % of Positive Control (CYP1A2 [4]; 1 µM): −13% | Mean Enzyme Activity (CYP1A2 [4]; 1 µM): 1.81 pmol/10^6 cells/min | % of Positive Control (CYP1A2 [4]; 10 µM): −9% | Mean Enzyme Activity (CYP1A2 [4]; 10 µM): 2.08 pmol/10^6 cells/min | fold induction at 48 h, 0.1 µM (CYP2B6 [5]): 0.87 | fold induction at 48 h, 1 µM (CYP2B6 [5]): 0.58 | fold induction at 48 h, 10 µM (CYP2B6 [5]): 0.87 | % of Positive Control (CYP2B6 [5]; 0.1 µM): −3% | Mean Enzyme Activity (CYP2B6 [5]; 0.1 µM): 0.77 pmol/10^6 cells/min | % of Positive Control (CYP2B6 [5]; 1 µM): −9% | Mean Enzyme Activity (CYP2B6 [5]; 1 µM): 0.51 pmol/10^6 cells/min | % of Positive Control (CYP2B6 [5]; 10 µM): −3% | Mean Enzyme Activity (CYP2B6 [5]; 10 µM): 0.76 pmol/10^6 cells/min | IC50 (CYP2B6 [6]): > 50 µM
